Data: patent US20240198287A1, “CARBON DIOXIDE RECOVERING METHOD AND CARBON DIOXIDE RECOVERING DEVICE” (MITSUBISHI GAS CHEMICAL COMPANY, INC., priority 2021, published 2024)

Assay: Acid dissociation constant (pKa) by acid-base titration
Format: physicochemical
Conditions: purified water; titration with 0.1 N perchloric acid-acetic acid solution, 25±2° C.
Method: In the present description, the acid dissociation constant of the amine compound (a) is a value obtained by the following measurement method based on an acid-base titration method. • (1) Dissolving 0.2 g of the amine compound (a) in 30 mL of purified water. • (2) Calculating the acid dissociation constant (pKa) by titrating the solution obtained in the above (1) with 0.1 N perchloric acid-acetic acid solution using an automatic potentiometric titrator (for example, AT-610 produced by Kyoto Electronics Manufacturing Co., Ltd.).
Still, let a temperature at a time of measurement be 25±2° C.
The acid dissociation constant of the amine compound (a) was determined by the following method. • (1) Dissolving 0.2 g of the amine compound (a) in 30 mL of the purified water. • (2) Calculating the acid dissociation constant (pKa) by titrating the solution obtained in the above (1) with the 0.1 N perchloric acid-acetic acid solution using the automatic potentiometric titrator (AT-610 produced by Kyoto Electronics Manufacturing Co., Ltd.).
Still, let the temperature at the time of measurement be 25±2° C.

pKa: 10.8
SMILES: NCC1CCCC(CN)C1 (stereo not shown) [1,3-BAC, 1,3-bis(aminomethyl)cyclohexane]
